# Measured values as given in patent publication US4962111A (priority 1989, dated 1990).
# Where “and” joins values, the source holds several entries; their conditions need not be identical. Equal values may be shown once.
# What was measured:
# [1] = tested on: M. tb. 311; test: microbe, parasite or virus in culture; format: cell-based; conditions: Mycobacterium tuberculosis, 99% (2 log) inhibition, pH 5.8
# [2] = tested on: Mycobacterium tuberculosis (laboratory mutant, nitrosoguanidine induced, resistant to pyrazinamide); format: cell-based; set-up: MIC: unit not given beside the values; conditions: for MIC: pH 5.8
# [3] = tested on: Mycobacterium tuberculosis (laboratory mutant, nitrosoguanidine induced, resistant to pyrazinoic acid); format: cell-based; set-up: MIC: unit not given beside the values
# [4] = tested on: Mycobacterial populations; conditions: cited from earlier work
Compound,MIC [1] [µg/mL],MIC [2],also measured
C=CCOC(=O)c1cnccn1 [Allyl Pyrazinoate],6.25,–,–
CCCOC(=O)c1cnccn1 [n-Propyl Pyrazinoate],6.25,12.5 and 6.25,–
Cc1ccc(OC(=O)c2cnccn2)cc1 [p-Tolyl Pyrazinoate],12.5,12.5 and 25,MIC ([3]; pH 5.8): 12.5 and 6.25
Nc1ccc(C(=O)O)c(O)c1 [p-aminosalicylic acid],–,–,suppression of emergence of resistance ([4]; combination with streptomycin): can delay development of streptomycin resistance
NC(=O)c1cnccn1 [pyrazinamide],> 200,–,concentration required to achieve a 99% inhibition of growth [2]: > 200 µg/mL; concentration required to achieve a 99% inhibition of growth [3]: > 200 µg/mL; development of resistance ([4]; when used alone): resistance develops quickly
"O=C(OCC(F)(F)F)c1cnccn1 [β, β, β-Trifluoroethyl Pyrazinoate]",25,–,–
